Reference: paper PMC8297402, “Trifluoromethyl-substituted 3,5-bis(arylidene)-4-piperidones as potential anti-hepatoma and anti-inflammation agents by inhibiting NF-кB activation” (Journal of Enzyme Inhibition and Medicinal Chemistry, 2021)
Where two headings read alike, the source gives them in different places.

Experiments:
[1] = test system: IL-6; test: ELISA of IL-6 release in LPS-stimulated RAW264.7 cells; assay type: cell-based, mouse; settings: RAW264.7, ELISA; for Inhibition rate IL-6: BAPs (5 μM) + LPS (1 μg/mL); for inhibition at 5 µM: RAW264.7, BAPs (5 μM) + LPS (1 μg/mL)
Experimental: (§1) We tested by inhibiting the secretion of TNF-α and IL-6 to better evaluated the anti-inflammatory effects of BAPs. […] Under the stimulation of LPS (1.0 μg/mL) with RAW264.7 cells, the release of TNF-α and IL-6 was detected. Besides, after treated with BAPs (5.0 μM) and LPS (1.0 μg/mL), the release of TNF-α and IL-6 was measured with an ELISA kit (eBioScience, San Diego, California), respectively. In general terms, pyrrolidine dithiocarbamate (PDTC, 30 μM) or BAP (5.0 μM) was used to pretreat cells for 2 h, respectively. Then, LPS (1.0 μg/mL) was added and cells were incubated for another 22 h. Finally, the culture media were centrifuged at 1000 rpm for 10 min, and the expression levels of TNF-α and IL-6 were determined by ELISA.

[2] = test system: RAW264.7 cell; test: MTT toxicity pre-experiment on RAW264.7 macrophagocyte; assay type: cell-based, mouse; settings: for Survival rate RAW264.7 cell: BAPs 5 μM; for viability at 5 µM: Mus musculus, RAW264.7, BAPs 5 μM, read-out: Survival rate RAW264.7 cell
Experimental: Lipopolysaccharide (LPS) is a key constituent of Gram-negative bacterial endotoxin, which is used to induce an inflammatory response in corresponding inflammatory cells. TNF-α and IL-6 are two kinds of representative pro-inflammatory factors, which produced by LPS-stimulated RAW264.7 macrophage. In our pre-experiments, the toxicity against RAW264.7 macrophagocyte for all title compounds was tested by the MTT assay, and the results were listed in Table 2. The survival rates were above 80% for all BAPs (4-30) at the concentration of 5.0 μM.

[3] = test system: SMMC-7721; test: Modified MTT cytotoxicity assay, SMMC-7721; assay type: cell-based, Human; settings: for IC50: MTT, 24 h incubation, three replicates; for SI (selectivity index) SMMC-7721: quotient of IC50 for normal (LO2) and malignant (SMMC-7721) cells
Experimental: (§2) The HepG2, SMMC-7721, and LO2 cell lines were maintained at 37 °C, 5% humidified CO2, and 95% atmosphere. Dulbecco's Modified Eagle (DMEM) medium containing 10% foetal bovine serum (FBS) was used for culturing the HepG2 cell line; meanwhile, Roswell Park Memorial Institute (RPMI) 1640 medium containing 10% FBS was used for culturing other cell lines (SMMC-7721, LO2). The HepG2, SMMC-7721 and LO2 cells were seeded in a 96-well plate in 200 μL of medium per well at a density of approximately 8 × 10^3 cells/well and cultured for 24 h, followed by incubation in an incubator of indicated compounds with successive concentrations (10, 5, 2.5, 1.25, 0.625, 0.3125 μg/mL) for 24 h. In the control group, cells were only cultured with culture media. After the media were removed, 20 μL of MTT (5 mg/mL) was added, then cells were incubated for 4 h at 37 °C. […] GraphPad Prism 5 software was used to calculate their IC50 values. Every IC50 value was the average of three replicates. Doxorubicin (DOX) and curcumin were used as positive controls.

[4] = test system: HepG2; test: Modified MTT cytotoxicity assay, HepG2; assay type: cell-based, Human; settings: for IC50: MTT, 24 h incubation, three replicates, read-out: Cytotoxicity IC50 HepG2; for SI (selectivity index) HepG2: quotient of IC50 for normal (LO2) and malignant (HepG2) cells
Experimental: as §2

[5] = test system: LO2; test: Modified MTT cytotoxicity assay, normal heptical cell line LO2; assay type: cell-based, human; settings: 24 h incubation
Experimental: as §2

[6] = test system: A2780; test: Modified MTT cytotoxicity assay, A2780; settings: for SI (selectivity index) A2780: quotient of IC50 for normal (HHL-5) and malignant (A2780) cells
[7] = test system: TNF-α; test: ELISA of TNF-α release in LPS-stimulated RAW264.7 cells; assay type: cell-based, mouse; settings: RAW264.7, ELISA; for Inhibition rate TNF-α: BAPs (5 μM) + LPS (1 μg/mL); for inhibition at 5 µM: RAW264.7, BAPs (5 μM) + LPS (1 μg/mL)
Experimental: as §1

[8] = test system: A549; test: Modified MTT cytotoxicity assay, A549; settings: for SI (selectivity index) A549: quotient of IC50 for normal (HHL-5) and malignant (A549) cells
Experimental: (§3) To further verify the anti-tumour activity, one human non-small cell lung cancer cell line (A549), one human ovarian cancer cell line (A2780), and one human normal heptical cell line (HHL-5) were screened by BAPs (4–30) using a modified MTT assay (Supporting Information). DOX and curcumin were selected as positive controls.
(§4) The optical density (OD) value of each well was measured on a
(§5) multi-well plate reader (TECAN, Mӓnnedorf, Switzerland ) at 570 nm.
(§6) Every IC 50 value was the average of three replicates.
(§7) Doxorubicin (DOX) and Curcumin were used as positive controls.

[9] = Modified MTT cytotoxicity assay, normal heptical cell line LO2; assay type: cell-based, human; settings: human, LO2 cells (normal hepatic cell line), 24 h incubation
Experimental: as §2

[10] = Modified MTT cytotoxicity assay, normal heptical cell line HHL-5; settings: human, HHL-5 cells (normal hepatic cell line)
Experimental: as §3, §4, §5, §6, §7

[11] = read-out: Cytotoxicity IC50 A2780, MTT, ovarian cancer cell line
[12] = read-out: Cytotoxicity IC50 A549, MTT, non-small cell lung cancer cell line
[13] = Mus musculus, read-out: Inhibition rate IL-6
[14] = Homo sapiens, A2780, read-out: Cytotoxicity IC50 A2780, MTT, ovarian cancer cell line
[15] = Mus musculus, read-out: Inhibition rate TNF-α
[16] = Homo sapiens, A549, read-out: Cytotoxicity IC50 A549, MTT, non-small cell lung cancer cell line

Row | SMILES | SI (selectivity index) SMMC-7721 [3] | SI (selectivity index) HepG2 [4] | SI (selectivity index) A2780 [6] | SI (selectivity index) A549 [8] | inhibition at 5 µM [1, 13] | viability at 5 µM [2] | IC50 ([3]; Homo sapiens, SMMC-7721, 24 h) | IC50 ([4]; Homo sapiens, HepG2, 24 h) | IC50 at 24 h [9] | IC50 [10] | IC50 [6, 14] | inhibition at 5 µM [7, 15] | IC50 [8, 16] | further results
1 | O=C1/C(=C/c2ccccc2C(F)(F)F)CN(S(=O)(=O)c2ccccc2)C/C1=C\c1ccccc1C(F)(F)F [BAP 4] | 2.0 | 1.8 | 0.2 | 3.8 | – | – | – | – | – | – | – | – | – | Inhibition rate IL-6 [1]: 70.7 ± 1.3%; Survival rate RAW264.7 cell [2]: 82.2 ± 2.0%; IC50 [3]: ~8.2 µM; IC50 ([3]; listed as 4): 8.2 ± 0.6 µM; IC50 ([4]; listed as 4): 9.2 ± 0.2 µM; IC50 [4]: ~9.2 µM; IC50 [5]: 16.4 ± 0.2 µM; IC50 [6, 11]: 54000 ± 12000 nM; Inhibition rate TNF-α [7]: 62.1 ± 4.7%; IC50 [8, 12]: 2240 ± 1230 nM
2 | Cc1ccc(S(=O)(=O)N2C/C(=C\c3ccccc3C(F)(F)F)C(=O)/C(=C/c3ccccc3C(F)(F)F)C2)cc1 [BAP 5] | – | – | – | – | 49.6 ± 1.1% | 93.3 ± 1.7% | 19.7 ± 0.1 µM | 17.5 ± 0.1 µM | 36.2 ± 2.3 µM | 24.9 ± 0.1 µM | 4850 ± 470 nM | 46.2 ± 1% | 14000 ± 1990 nM | –
3 | O=C1/C(=C/c2ccccc2C(F)(F)F)CN(S(=O)(=O)c2ccc(F)cc2)C/C1=C\c1ccccc1C(F)(F)F [BAP 8] | – | – | – | – | 51.3 ± 3.3% | 82.1 ± 1.9% | 8.3 ± 0.2 µM | 4 ± 0.2 µM | 13.8 ± 1.1 µM | 11.8 ± 0.2 µM | 1440 ± 540 nM | 46.8 ± 4.2% | 13400 ± 1390 nM | –
4 | O=C1/C(=C/c2ccccc2C(F)(F)F)CN(S(=O)(=O)c2ccc(Cl)cc2)C/C1=C\c1ccccc1C(F)(F)F [BAP 9] | – | – | – | – | 38.2 ± 2.5% | 92.8 ± 4.2% | 10.4 ± 0.3 µM | 11 ± 0.3 µM | 30.9 ± 0.3 µM | 9.3 ± 0.1 µM | 620 ± 70 nM | 47.1 ± 6.4% | 1860 ± 610 nM | –
5 | N#Cc1ccc(S(=O)(=O)N2C/C(=C\c3ccccc3C(F)(F)F)C(=O)/C(=C/c3ccccc3C(F)(F)F)C2)cc1 [BAP 11] | 1.1 | 1.4 | 0.5 | 0.2 | 59.1 ± 5.2% | 84.2 ± 2% | 12 ± 0.2 µM | 9 ± 0.2 µM | 13 ± 0.1 µM | 15.5 ± 0.3 µM | 32300 ± 7690 nM | 58.9 ± 3.2% | 64200 ± 10200 nM | –
6 | Cc1ccc(S(=O)(=O)N2C/C(=C\c3cccc(C(F)(F)F)c3)C(=O)/C(=C/c3cccc(C(F)(F)F)c3)C2)cc1 [BAP 14] | – | – | – | – | 66.3 ± 2% | 89.2 ± 1.8% | 5.6 ± 0.1 µM | 11.1 ± 0.2 µM | 15.9 ± 0.1 µM | 9.4 ± 0.2 µM | 140 ± 30 nM | 60.2 ± 1.2% | 230 ± 40 nM | –
7 | O=C1/C(=C/c2cccc(C(F)(F)F)c2)CN(S(=O)(=O)c2ccc(F)cc2)C/C1=C\c1cccc(C(F)(F)F)c1 [BAP 17] | – | – | – | – | 67.6 ± 2.2% | 85.1 ± 2% | 4.8 ± 0.3 µM | 3.4 ± 0.2 µM | 19.5 ± 0.1 µM | 3.5 ± 0.5 µM | 140 ± 10 nM | 65.6 ± 1.2% | 280 ± 10 nM | –
8 | O=C1/C(=C/c2cccc(C(F)(F)F)c2)CN(S(=O)(=O)c2ccc(Cl)cc2)C/C1=C\c1cccc(C(F)(F)F)c1 [BAP 18] | – | – | – | – | 46.2 ± 2.1% | 85.7 ± 4.2% | 13.9 ± 0.1 µM | 5.2 ± 0.1 µM | 14.1 ± 0.1 µM | 2.2 ± 0.1 µM | 190 ± 20 nM | 50.6 ± 3.2% | 150 ± 20 nM | –
9 | N#Cc1ccc(S(=O)(=O)N2C/C(=C\c3cccc(C(F)(F)F)c3)C(=O)/C(=C/c3cccc(C(F)(F)F)c3)C2)cc1 [BAP 20] | 4.0 | 19.3 | 16.0 | 14.1 | 77.7 ± 1.5% | 83.7 ± 1.3% | 4.3 ± 0.2 µM | 0.9 ± 0.1 µM | 17.4 ± 0.1 µM | 2.4 ± 0.4 µM | 150 ± 20 nM | 75.2 ± 2.7% | 170 ± 2 nM | –
10 | O=C1/C(=C/c2ccc(C(F)(F)F)cc2)CN(S(=O)(=O)c2ccccc2)C/C1=C\c1ccc(C(F)(F)F)cc1 [BAP 22] | – | – | – | – | 68.3 ± 1.3% | 89.4 ± 7.8% | ~8.5 µM | ~1.8 µM | 18.2 ± 0.2 µM | 7.9 ± 0.1 µM | 170 ± 60 nM | 65.2 ± 1.3% | 180 ± 20 nM | –
11 | O=C1/C(=C/c2ccc(C(F)(F)F)cc2)CN(S(=O)(=O)c2ccc(F)cc2)C/C1=C\c1ccc(C(F)(F)F)cc1 [BAP 26] | 5.1 | 5.1 | 38.0 | 70.6 | – | – | – | – | – | – | – | – | – | Inhibition rate IL-6 [1]: 62.8 ± 3.0%; Survival rate RAW264.7 cell [2]: 87.6 ± 1.7%; IC50 [3]: 3.1 ± 0.1 µM; IC50 [4]: 3.1 ± 0.2 µM; IC50 [5]: 15.7 ± 0.2 µM; IC50 [6, 11]: 297 ± 50 nM; Inhibition rate TNF-α [7]: 66.3 ± 5.3%; IC50 [8, 12]: 160 ± 50 nM
12 | O=C1/C(=C/c2ccc(C(F)(F)F)cc2)CN(S(=O)(=O)c2ccc(Br)cc2)C/C1=C\c1ccc(C(F)(F)F)cc1 [BAP 28] | 7.5 | 8.4 | 115.0 | 103.5 | > 70% | 84 ± 3.6% | 1.9 ± 0.2 µM | 1.7 ± 0.2 µM | 14.2 ± 0.3 µM | 20.7 ± 0.5 µM | 180 ± 40 nM | > 70% | 200 ± 20 nM | –
13 | COc1cc(/C=C/C(=O)CC(=O)/C=C/c2ccc(O)c(OC)c2)ccc1O [Curcumin, reference compound] | 1.5 | 1.9 | 0.5 | 0.8 | – | – | ~19.5 µM | ~15.3 µM | 29.1 ± 2.1 µM | 24.2 ± 0.5 µM | 44000 ± 9820 nM | – | 32000 ± 3550 nM | –
14 | S=C(S)N1CCCC1 [PDTC, pyrrolidine dithiocarbamate, reference compound] | – | – | – | – | – | – | – | – | – | – | – | – | – | inhibition at 30 µM ([1]; Mus musculus, RAW264.7, PDTC 30 μM + LPS (1 μg/mL), read-out: Inhibition rate IL-6): ~59.1%; inhibition at 30 µM ([7]; Mus musculus, RAW264.7, PDTC 30 μM + LPS (1 μg/mL), read-out: Inhibition rate TNF-α): ~68.2%
